Entries after “also recorded” stand apart in the source; their conditions may differ.

These results are taken from US12691124B2, “Methods of controlling and improving brain health” (ICAHN SCHOOL OF MEDICINE AT MOUNT SINAI, priority 2019, dated 2026).

The subject of the assay is CK-p25 mice. Nature of the assay: p25 (CK-p25) mouse model of Alzheimer's disease. As to conditions: 30 mg/kg i.p. daily. In kind it is in vivo. As to the method: Cdk^5tetO/+; Camk^2atTa/+ model of Alzheimer's disease uses the Camk2a promoter-driven tetracycline-controlled transactivator system (tTA) to overexpress human p25 fused to GFP in forebrain projection neurons after the removal of doxycycline from the diet. To avoid potential developmental effects of p25 expression, all mice were conceived and raised in the presence of doxycycline until 6-8 weeks of age.
Immunostaining. Mice were anesthetized with ketamine (120 mg/kg) and xylazine (24 mg/kg) and perfused transcardially with 10 ml PBS and 40 ml 4% paraformaldehyde (Electron Microscopy Sciences). Fixed brains were removed and dehydrated in 5%, 15% and 30% sucrose in PBS. Following dehydration, brains were frozen in Neg-50 (Thermo Scientific) on dry ice and stored at −80° C. until further processing. Brains were cut using a cryostat and 25-μm sections were mounted on Superfrost Plus microscope slides (Fisher Scientific). Slides were stored at −80° C. until staining. Slides were washed with PBS, permeabilized with PBS+0.2% Triton X-100 (PBST) and blocked with 2% normal goat serum in PBST for one hour at room temperature. Slides were incubated with primary antibodies (IBA1, 1:500, 019-19741, Waco; NeuN) in 2% normal goat serum in PBST overnight at 4° C. Slides were washed in PBST and incubated in Alexa Fluor-conjugated secondary antibodies (Alexa Fluor 488-, 546-, and 568- and 647-labeled goat anti-mouse, goat anti-rat, goat anti-chicken, goat anti-rabbit or donkey anti-goat IgGs (H+L); 1:500, Thermo Scientific) in 2% normal goat serum in PBST for 1 h at RT. Slides were washed and cover-slipped using Prolong Gold anti-fade with DAPI (Invitrogen) and dried overnight. Imaging was performed using a Zeiss LSM 780 Confocal Microscope (Zeiss, Oberkochen, DE). For z-stack images, 20-μm z-stack confocal images were acquired at 2-μm intervals, with 40×/1.3 oil objective at 0.6 or 1× zoom. For single plane images, 4.6 μm images were acquired at 20×/0.8 or 40×/1.3 objectives 0.6 or 1× zoom. Image processing was performed using Zen 2011 software (Zeiss).
Immunoblotting. Mice were anesthetized with CO2 followed by decapitation, and the region of interest was rapidly dissected and frozen in liquid nitrogen and stored at −80° C. until further processing. Samples were sonicated at 4° C. in 1% SDS solution supplemented with protease, Trichostatin A (500 ng/ml) and PhosStop phosphatase inhibitor (Roche, Switzerland), and boiled for ten minutes. The protein concentration was determined using a BCA protein assay kit (ThermoFisherScientific, USA) according to the manufacturer's instructions. Protein samples were diluted in equal volume of 2×LDS sample buffer (Invitrogen) and supplemented with DTT to a final concentration of 200 mM (Sigma).
Therefore to test the therapeutic effect of IBET858, p25 was overexpressed for two weeks in adult mice to initiate microgliosis and gene expression deficits before administration of daily IBET858 (30 mg/kg, i.p.) treatment for five weeks (FIG. 6A).
Gene expression levels for Casp3 are unaffected by 5 week IBET858 treatment in vivo. n=3, unpaired two-tailed t-test. […] To generate the p25 neurodegenerative mouse model, tetOCDK5R1/GFP were bred to CamK2a-tTA mice (“CK-p25”). Transgene overexpression was induced at 6 weeks of age by removing doxycycline from the diet. After two weeks, mice were daily injected with IBET858 (30 mg/kg, i.p.) or vehicle (FIG. 24C). Gene expression and protein levels of GFP reflecting transgene expression are unchanged.

For the compound `CC(=O)N1c2ccc(-c3ccc(CN4CCCCC4)cc3)cc2[C@H](Nc2ccccc2)CC1C` (stereo in doubt) [IBET858], for the setting “five weeks”, the “hippocampal inflammatory genes induced by P25 overexpression” value was “suppressed”. Also, the “contextual and cued recall (freezing behavior)” value (five weeks, fear conditioning) was “indistinguishable from controls”. Where the note is “five weeks, untreated P25 42+/−10.7%”, the “hippocampal Psd95 protein level compared to wild type controls” value is on record as 106+/−11.9%. Further, the “hippocampal NeuN protein level compared to wild type controls” value (five weeks, untreated P25 49+/−9.3%) is on record as 105+/−9.8%. The “brain atrophy (loss)” value (five weeks, untreated p25 27%) came to 17%. Further, for the setting “five weeks, untreated p25 713.9+/−106”, the “number of microglia in the hippocampus” value is 332.9+/−12.6 Iba1+ cells per mm^2. Under “five weeks, untreated p25 2254+/−223.8”, the “neuronal density in the dentate gyrus” value is reported as 7880+/−587 NeuN+ cells per mm2. Where the note is “western blot / GFP”, the “expression of the p25 transgene” value is on record as “does not affect; also recorded: unchanged”. In addition, under “hippocampus”, the “genes induced by P25 overexpression that are significantly suppressed” value was 365 genes and the “genes suppressed by P25 overexpression that are significantly induced” value amounted to 373 genes.
